This passage reports mortality results from patent US20150336881A1, “AMIDE COMPOUND AND USE THEREOF FOR PEST CONTROL” (Sumitomo Chemical Company, Limited, priority 2012, published 2015).

For orientation: mortality means the share of the test organisms that died.

The subject of the first data set is Adoxophyes orana fasciata. The data set is described as follows: Test Example 7: sprayed apple tree, Adoxophyes orana fasciata larvae released. As to conditions: in vivo. The procedure: The formulations of Compounds of Present Invention 1 to 5, 8 to 14, 18, 19, 25, 26, 54, 55, 60, 68 to 74, 76 to 78, 85, 86, 88 and 90 and Intermediate Compounds M6-8 to M6-13 as obtained in Formulation Example 5 were diluted with water, so as to have a concentration of the active ingredient of 500 ppm, to prepare a diluted liquid for test.
On the other hand, an apple tree was planted in a plastic cup, and grown until the seventh-eighth true leaf was spread. To the apple tree was sprayed in an amount of 20 mL/cup of the diluted liquid for test. After the drug solution was dried, 60 first-instar Adoxophyes orana fasciata were released, and the plastic cup the bottom of which was cut off and on which a filter paper was put was upside-down and covered. After 7 days, the number of surviving insects was counted, and the mortality was calculated according to the following equation:
Mortality (%)=(Number of dead insects/Number of tested insects)×100.
On to `CCSc1cc(C(F)(F)F)ccc1C(=O)Nc1ccc(C(F)(F)F)cc1` [Intermediate Compound M6-1, 2-ethylsulfanyl-4-trifluoromethyl-N-(4-trifluoromethyl-phenyl)-benzamide], for which the mortality is on record as 100%. Same read-out and setting: to `CCS(=O)(=O)c1cc(C(F)(F)F)ccc1C(=O)N(C)c1ccc(C(F)(F)C(F)(F)F)cc1` [compound 10] belongs 100%; to `CCSc1ccccc1C(=O)N(C)c1ccc(C(F)(F)C(F)(F)F)cc1` [compound 18], 100%. Still for that read-out and setting: to `CCSc1ccccc1C(=O)N(C)c1ccc(SC(F)(F)F)cc1` [compound 19] belongs 100%; to `CCS(=O)(=O)c1ccccc1C(=O)N(C)c1ccc(C(F)(F)C(F)(F)F)cc1` [compound 25], 100%; to `CCS(=O)(=O)c1ccccc1C(=O)N(C)c1ccc(SC(F)(F)F)cc1` [compound 26], 100%. Same read-out and setting: to `CCSc1cc(C(F)(F)F)ccc1C(=O)N(C)c1ccc(OC(F)(F)F)c(Br)c1` [compound 60] belongs 100%; to `CCSc1cc(C(F)(F)F)ccc1C(=O)N(C)c1ccc(C(F)(F)F)c(Cl)c1` [compound 68], 100%.

The subject of another data set is Musca domestica. Put plainly: Test Example 8: treated filter paper with sucrose bait, Musca domestica. The conditions noted are these: 0.7 ml on filter paper, female imagoes of Musca domestica, after 24 hours. In kind it is in vivo. The procedure:
Each of formulations of Compounds of Present Invention 1 to 5, 10, 18, 19, 25, 26, 60 and 68 and Intermediate Compound M6-1 as obtained in Formulation Example 5 was diluted with water, so as to have a concentration of the active ingredient of 500 ppm, to prepare a diluted liquid for test.
A filter paper having a diameter of 5.5 cm was spread on the bottom of a polyethylene cup having the same diameter and 0.7 ml of the diluted liquid for test was added dropwise onto the filter paper, and 30 mg of sucrose was uniformly placed as bait. Into the polyethylene cup, 10 female imagoes of Musca domestica were released, and the cup was sealed with a lid. After 24 hours, the life and death of Musca domestica was examined, and the mortality was calculated.
`CCSc1cc(C(F)(F)F)ccc1C(=O)Nc1ccc(C(F)(F)F)cc1` [Intermediate Compound M6-1, 2-ethylsulfanyl-4-trifluoromethyl-N-(4-trifluoromethyl-phenyl)-benzamide] displayed a mortality at 500 ppm of 100%.

In the next data set the test system is Blattella germanica. Put plainly: Test Example 9: treated filter paper with sucrose bait, Blattella germanica. In kind it is in vivo. The conditions noted are these: 500 ppm, 0.7 ml on filter paper, male imagoes of Blattella germanica, after 6 days. The procedure: The formulations of Compounds of Present Invention 3, 10 and 11 as obtained in Formulation Example 5 were diluted with water, so as to have a concentration of the active ingredient of 500 ppm, to prepare a diluted liquid for test.
A filter paper having a diameter of 5.5 cm was spread on the bottom of a polyethylene cup having the same diameter and 0.7 ml of the diluted liquid for test was added dropwise onto the filter paper, and 30 mg of sucrose was uniformly placed as bait. Into the polyethylene cup, 2 male imagoes of Blattella germanica were released, and the cup was sealed with a lid. After 6 days, the life and death of Blattella germanica was examined, and the mortality was calculated.
`CCS(=O)(=O)c1cc(C(F)(F)F)ccc1C(=O)N(C)c1ccc(C(F)(F)C(F)(F)F)cc1` [compound 10] showed a mortality of 100%. On the same count and under the same terms, to `CCS(=O)(=O)c1cc(C(F)(F)F)ccc1C(=O)N(C)c1ccc(SC(F)(F)F)cc1` [compound 11] belongs 100%.

For another data set, the system named is Culex pipiens pallens. Put plainly: Test Example 10: Culex pipiens pallens larvae in treated water. In kind it is in vivo. The conditions noted are these: 24 h; active ingredient concentration 3.5 ppm in water, last-instar larvae of Culex pipiens pallens, one day later. The procedure:
The formulations of Compounds of Present Invention 1 to 5, 8 to 11, 13, 18, 19, 25, 26, 44, 53 to 55, 59, 60, 68 to 74, 78, 86 to 88 and 90 and Intermediate Compounds M6-3, M6-4, M6-11, M6-12 and M6-23 as obtained in Formulation Example 5 were diluted with water, so as to have a concentration of the active ingredient of 500 ppm, to prepare a diluted liquid for test.
0.7 ml of the diluted liquid for test was added to 100 ml of ion-exchanged water (active ingredient concentration: 3.5 ppm). 20 last-instar larvae of Culex pipiens pallens were released into the solution. One day later, the life and death of the Culex pipiens pallens was examined, and the mortality of the pest was calculated.
The compound `CCSc1cc(C(F)(F)F)ccc1C(=O)Nc1ccc(C(F)(F)C(F)(F)F)cc1` [Intermediate Compound M6-3, 2-ethylsulfanyl-N-(4-pentafluoroethyl-phenyl)-4-trifluoromethyl-benzamide] came in with a mortality at 3.5 ppm of at least 95%. Same read-out and setting: to `CCSc1cc(C(F)(F)F)ccc1C(=O)Nc1ccc(SC(F)(F)F)cc1` [Intermediate Compound M6-4, 2-ethylsulfanyl-N-(4-trifluoromethylsulfanyl-phenyl)-4-trifluoromethyl-benzamide] belongs at least 95%.
